Key:
[1] = molecular target: T1, GMIIb (Golgi α-mannosidase) (Drosophila melanogaster, UniProt Q9VF33); experiment: α-mannosidase inhibition assay with pNP-Man, GMIIb; assay type: biochemical; settings: for SI^a = IC50(LManII)/IC50(GMIIb): selectivity index
T1 sequence (Q9VF33 31-1249): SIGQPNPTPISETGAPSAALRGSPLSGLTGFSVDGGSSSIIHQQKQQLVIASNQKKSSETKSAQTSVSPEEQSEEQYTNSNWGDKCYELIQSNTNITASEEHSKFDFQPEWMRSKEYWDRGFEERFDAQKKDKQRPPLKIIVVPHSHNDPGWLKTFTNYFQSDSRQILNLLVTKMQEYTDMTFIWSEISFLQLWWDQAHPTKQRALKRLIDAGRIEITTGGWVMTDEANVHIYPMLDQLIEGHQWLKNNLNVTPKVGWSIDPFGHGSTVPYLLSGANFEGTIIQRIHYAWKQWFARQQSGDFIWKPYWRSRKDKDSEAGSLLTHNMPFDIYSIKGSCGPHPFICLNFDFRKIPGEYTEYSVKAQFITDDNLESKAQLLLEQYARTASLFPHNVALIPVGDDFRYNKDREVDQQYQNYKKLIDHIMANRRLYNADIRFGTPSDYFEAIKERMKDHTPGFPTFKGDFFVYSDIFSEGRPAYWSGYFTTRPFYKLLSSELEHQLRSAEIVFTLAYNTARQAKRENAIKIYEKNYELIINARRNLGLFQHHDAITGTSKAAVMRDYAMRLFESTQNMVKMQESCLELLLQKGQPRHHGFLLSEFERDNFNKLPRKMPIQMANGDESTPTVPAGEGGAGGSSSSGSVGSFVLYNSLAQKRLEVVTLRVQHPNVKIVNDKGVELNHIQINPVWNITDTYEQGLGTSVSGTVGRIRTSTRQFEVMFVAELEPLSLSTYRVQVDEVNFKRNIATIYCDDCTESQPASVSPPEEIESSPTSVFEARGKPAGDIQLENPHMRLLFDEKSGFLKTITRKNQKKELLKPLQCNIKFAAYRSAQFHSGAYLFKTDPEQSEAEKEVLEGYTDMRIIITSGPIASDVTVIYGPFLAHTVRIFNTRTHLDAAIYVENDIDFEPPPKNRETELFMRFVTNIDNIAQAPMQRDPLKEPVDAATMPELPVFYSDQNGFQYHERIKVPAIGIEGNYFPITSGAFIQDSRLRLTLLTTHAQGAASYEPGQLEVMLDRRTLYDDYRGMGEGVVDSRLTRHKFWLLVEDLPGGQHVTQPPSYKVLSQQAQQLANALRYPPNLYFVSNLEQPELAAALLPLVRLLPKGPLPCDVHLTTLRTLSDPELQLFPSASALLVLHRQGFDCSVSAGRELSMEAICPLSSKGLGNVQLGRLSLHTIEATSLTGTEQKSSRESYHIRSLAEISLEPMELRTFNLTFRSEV

[2] = molecular target: T2, AMAN-2 (Golgi α-mannosidase) (Caenorhabditis elegans, UniProt Q2PJ74); experiment: α-mannosidase inhibition assay with pNP-Man, AMAN-2; assay type: biochemical; settings: for SI^b = IC50(JBMan)/IC50(AMAN-2): selectivity index
T2 sequence (Q2PJ74 27-1145): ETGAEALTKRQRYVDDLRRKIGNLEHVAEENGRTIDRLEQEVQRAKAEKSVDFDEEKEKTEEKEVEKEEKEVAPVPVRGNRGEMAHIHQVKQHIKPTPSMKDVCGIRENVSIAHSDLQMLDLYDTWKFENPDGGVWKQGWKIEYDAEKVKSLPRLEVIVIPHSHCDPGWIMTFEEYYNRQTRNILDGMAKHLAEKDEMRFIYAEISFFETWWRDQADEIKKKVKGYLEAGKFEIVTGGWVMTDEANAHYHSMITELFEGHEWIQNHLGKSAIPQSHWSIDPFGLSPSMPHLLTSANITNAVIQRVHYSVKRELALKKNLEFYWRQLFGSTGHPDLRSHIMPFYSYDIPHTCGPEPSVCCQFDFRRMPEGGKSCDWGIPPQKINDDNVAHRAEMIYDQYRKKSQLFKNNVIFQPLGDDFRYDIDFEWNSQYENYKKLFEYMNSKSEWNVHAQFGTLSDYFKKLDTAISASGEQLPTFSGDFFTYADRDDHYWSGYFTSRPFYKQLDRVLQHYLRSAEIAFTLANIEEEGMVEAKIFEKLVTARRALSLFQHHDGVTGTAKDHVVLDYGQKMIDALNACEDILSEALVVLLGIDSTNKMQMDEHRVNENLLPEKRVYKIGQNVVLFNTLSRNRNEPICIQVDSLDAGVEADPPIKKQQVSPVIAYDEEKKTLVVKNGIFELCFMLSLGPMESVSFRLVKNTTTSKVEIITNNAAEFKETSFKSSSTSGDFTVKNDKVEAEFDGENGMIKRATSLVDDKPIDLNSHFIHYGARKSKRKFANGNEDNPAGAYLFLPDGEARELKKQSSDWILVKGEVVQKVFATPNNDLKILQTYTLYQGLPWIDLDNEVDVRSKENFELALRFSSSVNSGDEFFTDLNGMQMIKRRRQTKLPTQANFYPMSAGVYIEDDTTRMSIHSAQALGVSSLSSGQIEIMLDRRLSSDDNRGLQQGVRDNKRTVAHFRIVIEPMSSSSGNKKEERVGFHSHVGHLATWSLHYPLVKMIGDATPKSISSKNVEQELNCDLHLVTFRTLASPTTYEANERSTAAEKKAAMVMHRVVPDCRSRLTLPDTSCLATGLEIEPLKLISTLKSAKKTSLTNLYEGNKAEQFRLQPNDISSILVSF

[3] = system: dGMII (Golgi α-mannosidase II); settings: previous pKa calculations; cited from earlier work
[4] = in aqueous solution; cited from earlier work

Row | Structure (SMILES) | SI^a = IC50(LManII)/IC50(GMIIb) [1] | SI^b = IC50(JBMan)/IC50(AMAN-2) [2] | Ki ([1]; read-out: Ki GMIIb, Dixon plots, pNP-Man 0.5-4 mM, pH 6.0) [nM] | Ki ([2]; read-out: Ki AMAN-2, Dixon plots, pNP-Man 0.5-4 mM, pH 6.0) [nM] | pKa bound in complex with dGMII [3] | pKa [4]
1 | Cl.OC[C@H]1NC[C@@H](O)[C@H]1O [Compound 6, 1,4-Dideoxy-1,4-imino-d-lyxitol hydrochloride] | 8 | 5 |  |  |  | 
2 | OC[C@@H](O)[C@H]1NC[C@@H](O)[C@H]1O [DIM, 1,4-dideoxy-1,4-imino-D-mannitol, reference compound] | 13 | 1 | 130 | 680 |  | 
3 | O[C@H]1[C@H]2[C@H](O)CCCN2C[C@H]1O [Swainsonine, (1S,2R,8R,8aR)-trihydroxy-indolizidine] |  |  |  |  | 5.0 | 7.5

Source: article PMC7614232 (Organic & biomolecular chemistry, 2022)
